Data taken from patent publication US20060063209A1, “Engineered antibody fragment that irreversibly binds an antigen” (THE REGENTS OF THE UNIVERSITY OF CALIFORNIA, priority 2004, published 2006).
“Also recorded” adds a separate entry of the source.

Columns and labels:
Fab S95C [1] = test: Kinetics of covalent bond formation with Fab S95C; type: binding; conditions: 22° C., pH 7.4
Method: FIG. 7 (a) Phosphorimage of a representative SDS-PAGE assay of the extent of permanent attachment of ^111In-AABE to the light chain of Fab S95C. (b)Kinetics of formation of the covalent bond between bound ^111In-AABE and Fab S95C, at 22° C., pH 7.4.
We explored the rate of covalent attachment of the AABE-^111In chelate to the S95C mutant, by monitoring the extent of reaction as a function of time. The covalent attachment was 50% complete in approximately 10 min at 22° C. (FIG. 7).

[2] = Whole-body clearance of indium-111 labeled electrophilic benzyl-EDTA derivatives; type: in vivo; conditions: indium-111 labeled chelate, BALB/c mice; for apparent half-life, whole-body clearance: after tail-vein injection
Method: FIG. 4 Whole-body clearance of indium-^111I labeled electrophilic derivatives of benzyl-EDTA from BALB/c mice after tail-vein injection. Here the objective was to find an electrophilic chelate that clears from the animal quickly when not captured by an engineered CHA255.
As reactive ligands, a small set of chelates bearing electrophilic para substituents (FIG. 3) that could react with cysteine were prepared. To be most useful, the electrophilic ligands should be stable in biological media so that they not react prematurely with common biological nucleophiles such as the cysteine on glutathione or in albumin (Geigy Scientific Tables Vol 3, C. Lentner, ed., Ciba-Geigy Ltd., Basel, Switz (1984)). The whole-body clearance of the radiolabeled chelates from mice was studied (FIG. 4 and Chmura, A. J., et al., J. Controlled Release 78:249-258 (2002)) to identify the electrophilic chelates that are unreactive in plasma in vitro, and which also quantitatively clear from live animals.

Fab S95C [3] = test: Covalent attachment of 111In-chelates to engineered Fab S95C (SDS-PAGE); type: binding; conditions: physiological pH and temperature, raw culture medium with 10% fetal calf serum
Method: FIG. 5 Conjugation of electrophilic ^111In-benzyl-EDTA derivatives with engineered Fab S95C. Phosphorimage of 10-20% SDS-PAGE gel of samples of complete culture media incubated with ^111In-labeled (A) CABE, (B) CpABE, (C) AABE, and (D) ABE. The radiolabeled light chains migrate near 25 Kd.
To investigate whether either the S95C or the N96C Fab would bind irreversibly to its target, ^111In-labeled chelates bearing electrophilic groups were incubated at physiological pH and temperature with raw tissue culture medium from the cells expressing these recombinant proteins. The culture medium contained 10% fetal calf serum, representative of typical biological media.
The samples were analyzed by denaturing gel electrophoresis (SDS-PAGE). Separation under reducing and denaturing conditions on SDS-PAGE separates the light chain from the heavy chain of each Fab, functionally destroying the antibody-binding pocket. Chelates bound to the Fab but not covalently linked will dissociate because the antibody-binding pocket is no longer folded. […] However, a chelate that not only bound to a Fab but also covalently linked will be attached to the Fab light chain and migrate with it on SDS-PAGE.

S95C Fab = test: Competition assay: blocking covalent attachment of 111In-AABE; type: binding; conditions: excess nonradioactive ABE-metal chelate
Text: (a) Competition ELISA curves. Different metal-ABE chelates compete with an immobilized indium chelate for binding Fab S95C. (b) Competitive binding of a series of metal-ABE chelates, measured by blocking the covalent attachment of ^111In-AABE to Fab S95C. SDSPAGE gel bands show increased labeling of the light chain with decreasing competition.
To further confirm that S95C Fab retained the ligand-binding specificity, we performed a competition assay to see whether nonradioactive ABE-indium, -iron, -cadmium, -scandium, or -gallium could block the covalent attachment of ^111In-AABE.

antibody 2D12.5 = test: Competitive immunoassay (ELISA) of metal chelate binding; parameters: species or system mouse; conditions: reversible binding to parental 2D12.5
Text: FIG. 9 Relative binding of metal-(S)NBD complexes to antibody 2D12.5. A representative set of competitive binding curves obtained from ELISA experiments. Distance between midpoints is related to difference between dissociation constants. Error bars (representing the standard error of the mean) are shown but are generally smaller than the data points.
FIG. 14 Binding of yttrium chelates with different stereochemistry to antibody 2D12.5, showing that the antibody binds a chelate with the side chain in the R configuration approximately one order of magnitude less well than the S configuration. […] Error bars are smaller than the data symbols. Data were generated by competitive ELISA.
A competitive immunoassay to measure the binding constants of various metal-(S)NBD complexes relative to the original Y^3+ complex (FIG. 9) was developed to assess the metal selectivity of antibody 2D12.5. Briefly, 2D12.5 was incubated at 37° C. in the presence of immobilized HSA-21T-Y-(S)BAD and a soluble metal-(S)NBD competitor (Y-(S)BAD was linked to human serum albumin via 2-iminothiolane). The metal-(S)NBD concentration was varied from μM to pM in order to determine the relative binding affinity of 2D12.5 for each metal chelate in comparison to Y-(S)NBD. […] Other antibodies that bind metal chelates do so with a strong preference for one or possibly two metals (Love, R. et al., Biochemistry 32, 10950-10959 (1993), and Khosraviani, M., et al., (2000) Bioconjugate Chem., 11, 267-277). For example, the (S)NBD chelate of group IIIB ion Sc(III) binds to the antibody with a much lower affinity (<1%) than the strongest binding rare earth complexes, perhaps because Sc(III) has a much smaller ionic radius (Meehan, P. R., et al., Coord. Chem. Rev., 181, 121145, and Shannon, R. D. (1976) Acta Crystallogr., Sect. A: Found. Crystallogr., A32, 751-767).

G54C Fab = test: Kinetics of permanent bond formation with G54C Fab; type: binding
Method: FIG. 21 Kinetics of permanent bond formation between G54C Fab (1 μM) and 10 μM ^90Y-labeled YAABD. The addition of a high concentration of Y-NBD, a reversibly binding competitor, after 6 min competitively blocks the re-binding of any Y-AABD that dissociates without forming a permanent bond. The experiment containing no competitor, on the other hand, allows any Y-AABD molecules initially bound in an unproductive mode to rebind in an orientation favorable for permanent covalent bond formation until a maximum is reached.
The question to be addressed was the probability that Y-AABD reacts with G54C the first time it forms a complex, instead of dissociating and rebinding. In the first experiment ^90Y-labeled Y-AABD (10 μM) was added to G54C Fab (1 μM) at 37° C., pH 7.5. Samples were withdrawn at various times and were immediately added to SAB, boiled and reduced under denaturing conditions to halt any further permanent bond formation. Samples were analyzed by SDS-PAGE, and the extent of permanent bond formation was determined by measuring the relative radioactivity of bands.
In a second experiment, performed in parallel, conditions were identical to the first except that the reversible competitor Y-NBD was added in vast excess (1 mM) relative to Y-AABD after 6 min, allowing labeled Y-AABD complexes to form bonds or dissociate, but competitively blocking any re-binding of Y-AABD to G54C.

G54C mutant of 2D12.5 = test: Permanent binding to G54C, competitive 90Y-AABD attachment, SDS-PAGE; conditions: 37° C.
Method: FIG. 17 a) Scheme describing the permanent binding pair. b) Infinite binding is observed not only for ^90Y-AABD but also for ^111In-AABD, assayed by SDS-PAGE under denaturing conditions where only permanently bound complexes remain attached to the antibody.
FIG. 18 The G54C mutant was preincubated in triplicate with 10 μM AABD complexes of Y^3+, In^3+ or Cu^2+, a negative control N-(1-carbamoyl-2-(4-nitrophenyl)-ethyl)-acrylamide or N-(4-carboxymethylphenyl)-acrylamide, or just buffer, for 5 min, 20 min or 120 min at 37° C., pH 7.5. At the stated times ^90Y-AABD (1 μM) was added to each solution to compete for free G54C. Permanent binding was assayed by measuring band intensities after SDS-PAGE. a) Phosphorimage of gel. The fainter the bands, the greater the permanent binding by the unlabeled ligand. b) Crystal structures of Y-DOTA, In-DOTA-mono(p aminoanilide) (some atoms removed for clarity) and Cu-DOTA.
FIG. 19 a) Metal-AABD (10 μM) complexes were preincubated separately with aliquots of G54C for 5 min, followed by addition of 1 μM ^90Y-AABD, which competes for free G54C, and SDS-PAGE analysis. b) From quantitative phosphorimaging, the highest-affinity AABD complexes form permanent bonds with G54C with higher yields than more 3+weakly binding rare earth-AABD complexes whose ionic radii are slightly smaller (Lu Yb^3+) or larger (Ce^3+, La^3+) than ideal.
We were curious to see if an even weaker binder such as a copper chelate (KD˜10^−4 M for Cu-NBD) would bind irreversibly under ordinary conditions. We tested this by comparing the permanent binding of Y^3+-, In^3+-, and Cu^2+-AABD, using competitive ^90Y-AABD attachment as an indicator (FIG. 18). […] Weaker binding In-AABD blocks >50% of the sites after 5 min preincubation, and even more at later times. Very weakly binding Cu-AABD initially occupies only about 10% of the G54C sites under these conditions, but it has permanently attached to G54C in good yield after 2 hr, blocking>70% of the sites.

Compound | time to 50% complete covalent attachment (Fab S95C [1]) | whole-body clearance [2] | apparent half-life, whole-body clearance [2] | covalent attachment to Fab S95C light chain (Fab S95C [3]; listed as 111In-AABE) | covalent attachment to Fab S95C light chain (Fab S95C [3]; listed as AABE-^111In) | blocking of covalent attachment of 111In-AABE (S95C Fab) | covalent attachment to Fab S95C light chain (Fab S95C [3]) | Kd (antibody 2D12.5) [nM] | fraction of molecules reacting upon initial complex formation (G54C Fab) | G54C sites blocked from 90Y-AABD (G54C mutant of 2D12.5; 10 μM complex, preincubation 5 min, pH 7.5) [%] | permanent binding to G54C (G54C mutant of 2D12.5; pH 7.5, SDS-PAGE, listed as 90Y-AABD)
C=CC(=O)Nc1ccc(C[C@@H](CN(CC(=O)O)CC(=O)O)N(CC(=O)O)CC(=O)O)cc1 [AABE, (S)-1-[p-(acrylamido)benzyl]-EDTA] | approximately 10 min | showed the required clearance properties; also recorded: clears as completely—and almost as rapidly—as ABE | about 4 h | reacted equally well | reacted with the S95C mutant of CHA255 to permanently tag the light chain | – | – | – | – | – | –
Nc1ccc(C[C@@H](CN(CC(=O)O)CC(=O)O)N(CC(=O)O)CC(=O)O)cc1 [ABE, (S)-1-[p-(amino)benzyl]-EDTA, reference compound] | – | – | about 4 h | – | – | effectively blocks the reaction | not | – | – | – | –
C=CC(=O)Nc1ccc(C[C@H]2CN(CC(=O)O)CCN(CC(=O)O)CCN(CC(=O)O)CCN2CC(=O)O)cc1 [Y-AABD, (S)-2-(4-acrylamidobenzyl)-DOTA] | – | – | – | – | – | – | – | 4 | about half | > 90 | permanently and specifically attaches
